The results in this text go back to US6972287B1, “Method of inhibiting amyloid protein aggregation and imaging amyloid deposits” (Pfizer Inc., priority 1999, dated 2005).

Holding throughout (format): biochemical
Assay [1] has as its target T1, Aβ(1-40) (Homo sapiens, UniProt P05067).
T1 construct: […]; purchased Bachem, Torrance, Calif
As to the kind of experiment: BASST (Beta-Amyloid Self-Seeding, Thioflavin T), inhibitors of self-seeded amyloid fibril growth. The conditions noted are these: read-out: BASST (IC50 = μM). The method, then:
(§1) An assay for inhibitors of self-seeded amyloid fibril growth
Assay Buffer—50 mM sodium phosphate, pH 7.5, 100 mM NaCl, 0.02% NaN3, 1 M urea (filter and store at 4° C.)
(§2) Typically, the solution should be stored until no lag phase is seen in the assay.
The following are the amounts of the components of the reaction mixture that result in each of the 50 assay wells:
• 1) Prepare the reaction mix above by mixing the components and storing on ice. • 2) Pipet 14.5 μL of reaction mixture into each of 50 wells of a polystyrene U-bottom 96-well microtiter plate (Corning 25881-96) on ice. • 3) Add 1.7 μL of diluted compound to be tested to each well in a column of eight, including solvent control. Serial 3-fold dilutions from 1 mM (100 μM final) in assay buffer−urea=7 dilutions+zero. Each 96-well plate can therefore accommodate 11 samples+1 Congo Red control (0.039-5 μM final in 2-fold steps). • 4) Seal the plate with aluminum film and incubate for 10 minutes on ice. • 5) Raise the temperature to 37° C. and incubate for 3 to 5 hours (depends on the lot of the peptide). • 6) Remove the aluminum film and add 250 μL/well of 5 μM thioflavin T (ThT) [T-3516, Sigma-Aldrich] in 50 mM glycine-NaOH, pH 8.5. Read fluorescence on a plate reader (ex=440 nm/20 nm; em=485 nm/20 nm) within 5 minutes. BAPA (Beta-Amyloid Peptide Aggregation)

Assay [2] concerns the target T1, Aβ(1-40). As to the kind of experiment: BASSR (Beta-Amyloid Self-Seeding Radioassay), inhibitors of self-seeded amyloid fibril growth. The method, then:
BASSR (Beta-Amyloid Self-Seeding Radioassay)
as §1
Assay Buffer—50 mM sodium phosphate, pH 7.5, 100 mM NaCl, 0.02% NaN3, 1 M urea (filter and store at 4° C.).
as §2
^125I-labeled Aβ(1-40)—150K-350K cpm/μL in 100% acetonitrile—0.1% trifluoroacetic acid (TFA)—1% β-mercaptoethanol (aliquots stored at −20° C.). ^125I-labeled Aβ(1-40) can be made in accordance with the procedure set forth by H. LeVine, III in Neurobiol. Aging, 16, 755, (1995), which is hereby incorporated by reference, or this reagent may be purchased from Amersham, Arlington Heights, Ill.
The following are the amounts of the components of the reaction mixture sufficient for 50 assay wells:
• 1) Prepare reaction mixture above by mixing components and storing on ice. • 2) Pipet 14.5 μL of reaction mixture into each of 50 wells on a polypropylene U-bottom 96-well microtiter plate on ice. (Costar 3794). • 3) Add 1.7 μL of diluted compound to be tested to each well in a column of eight, including solvent control. Serial 3-fold dilutions from 1 mM (100 μM final) in assay buffer−urea=7 dilutions+zero. Each 96-well plate can therefore accommodate 11 samples+1 Congo Red control (0.039-5 μM final in 2-fold steps). • 4) Seal the plate with aluminum film (Beckman 538619) and incubate for 10 minutes on ice. • 5) Raise the temperature to 37° C. and incubate for 3 to 5 hours (depending on the lot of the peptide). • 6) Remove the aluminum film and add 200 μL/well of ice cold assay buffer with urea, collecting the radiolabeled fibrils by vacuum filtration through 0.2 μm pore size GVWP filters in 96-well plates (Millipore MAGV N22, Bedford, Mass.). Determine the radioactivity of the filters using standard methods well-known to those skilled in the art. BASST (Beta-Amyloid Self-Seeding, Thioflavin T)

For assay [3], the target named is T2, Aβ (1-40) peptide (Homo sapiens, UniProt P05067).
T2 construct: 10 μL 0.5 mg/mL Aβ (1-40) peptide in 20% HFIP
As to the kind of experiment: BAPA (Beta-Amyloid Peptide Aggregation, pH 6.0, filtration). The conditions noted are these: Aβ (1-40) 33 μM, pH 6.0, 2 to 4 hours at room temperature; replicate values; letter = synthetic lot. The procedure: Each 96-well plate can therefore accommodate 11 samples+1 Congo Red control (0.039-5 μM final in 2-fold steps). • 4) Seal the plate with aluminum film and incubate for 10 minutes on ice. • 5) Raise the temperature to 37° C. and incubate for 3 to 5 hours (depends on the lot of the peptide). • 6) Remove the aluminum film and add 250 μL/well of 5 μM thioflavin T (ThT) [T-3516, Sigma-Aldrich] in 50 mM glycine-NaOH, pH 8.5. […] The purpose of this assays is to provide a higher volume method of assaying the amount of beta amyloid aggregation using an endpoint assay based on filtration. In this assay, hexafluoroisopropanol (HFIP) is used to break down the initial amyloid peptide to a monomer state and use a concentration of 33 μM which is high enough so that aggregation will occur at pH 6.0 in several hours. Methods: […] Then, we incubate for 2 to 4 hours at room temperature. […] We wash the filter plate with 100 μL of the same phosphate buffer. Aggregation was detected on a Microbeta counter after impregnating the filters with Meltilex (1450-441) and is corrected for background.

Assay [4] concerns the target T3, Aβ (1-42) (Homo sapiens, UniProt P05067).
T3 construct: Required Aβ (1-42) (California Peptide) was dried from its hexafluoroisopropanol (HFIP) stock solution; purchased California Peptide
As to the kind of experiment: BATYM assay (Aβ (1-42) aggregation, Thioflavin T fluorescence). The conditions noted are these: Aβ 1-42 final concentration 100 μM, 37° C., 1 day, letter = synthetic lot. The method, then: Required Aβ (1-42) (California Peptide) was dried from its hexafluoroisopropanol (HFIP) stock solution. The Aβ (1-42) was dissolved in dimethylsulfoxide (DMSO) and then mixed with phosphate buffered saline (PBS) (pH 7.4). The mixed Aβ (1-42) solution was filtered with a 0.2 μm Omnipore membrane syringe filter Millipore, Bedford, Mass.). The compound to be tested in DMSO (50 times concentrate) was put into each well (0.5 μL/well) of a 96-well plate. The Aβ (1-42) solution was added into each well (24.5 μL/well). The plate was centrifuged at 1,000 g for 5 minutes and incubated at 37° C. for 1 day (Aβ 1-42; final concentration 100 μM).
After incubation Thioflavin T (ThT) (30 μM) solution in glycine-NaOH buffer (pH 8.5, 50 mM) was added into each well (250 μL/well), fluorescence was measured (ex=440/20 nm, em=485/20 nm) using a fluorescence plate reader. The inhibitory activity was calculated as the reduction of fluorescence with the following formula: Inhibition (%)={(F(Aβ)−F(Aβ+compound)}/{F(Aβ)−[…]}×100
The IC50s were calculated by a curve fitting program using the following equation. The data were obtained from two different experiments in triplicate.
x=Concentration of tested compound (M),

Where [5] appears, read: 30 μM soluble Aβ(1-40) + 125I-labeled Aβ(1-40), 37° C., 3 to 5 hours, replicate values, letter = synthetic lot, ppt = precipitate, V-shaped = inhibition followed by precipitation.
Setting [6] is: 30 μM soluble Aβ(1-40), 37° C., 3 to 5 hours, thioflavin T fluorescence, replicate values, letter = synthetic lot.

Several values for one entry are separate records, joined by “and”; a condition that tells them apart may be missing. Identical values can stand only once. Counter-ions that a name gives are not always drawn. Some results are limits rather than exact numbers.

T1 sequence (P05067 672-711 limits assumed): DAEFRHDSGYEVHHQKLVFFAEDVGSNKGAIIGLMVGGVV
T2 sequence (P05067 672-711 limits assumed): as above
T3 sequence (P05067 672-713 limits assumed): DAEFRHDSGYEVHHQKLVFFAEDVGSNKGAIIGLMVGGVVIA

Consider “2-{4-[2-(3,4-Dichloro-phenyl)-ethyl]-phenylamino}-benzoate-2-hydroxy-1,1-bis hydroxymethyl-ethyl-ammonium [Example 120]”, for which the IC50 in assay [1] is 3 µM; in assay [2], over 100 µM; in assay [3] it was over 60 µM.

Regarding `O=C(O)c1cc([N+](=O)[O-])c(-n2ccnc2)cc1Nc1ccc(CCCc2ccc(Cl)c(Cl)c2)cc1` [Example 8], the IC50 in assay [4] was 7.17 µM; in assay [2] (setting [5]), 15 µM (3×) and 18 µM.

As for `O=C(O)c1ccccc1Nc1ccc(CCCc2ccc(N3CCCCC3)cc2)cc1` [Example 47, 2-{4-[3-(4-Piperidin-1-ylphenyl)propyl]phenylamino}benzoic acid], the half-maximal inhibitory concentration (IC50) in assay [4] was 38.2 µM; in assay [1] (setting [6]) it was 2 µM; in assay [2] (setting [5]) it was over 100 µM.

On to `CCCNc1ccc(CCCc2ccc(Nc3ccccc3C(=O)O)cc2)cc1` [Example 51, 2-{4-[3-(4-Propylaminophenyl)propyl]phenylamino}benzoic acid], for which the IC50 is 39.1 µM in assay [4], 0.8 µM in assay [1] (setting [6]) and 85 µM in assay [2] (setting [5]).

With `CCCNc1cccc(CCCc2ccc(Nc3ccccc3C(=O)O)cc2)c1` [Example 52, 2-{4-[3-(3-Propylaminophenyl)propyl]phenylamino}benzoic acid], the IC50 is 36.5 µM in assay [4], 0.5 µM in assay [1] (setting [6]) and 75 µM in assay [2] (setting [5]).

As for `Cc1cc(-c2cc(Cl)cc(Cl)c2)ccc1Nc1ccccc1C(=O)O` [Example 83, 2-(3′,5′-Dichloro-3-methyl-biphenyl-4-ylamino)-benzoic acid], the IC50 in assay [1] (setting [6]) is over 100 µM; in assay [2] (setting [5]) it was over 100 µM; in assay [3], 9 µM and 47 µM and 29 µM.

With `Cc1cc(-c2cc(Br)cc(Br)c2)ccc1Nc1ccccc1C(=O)O` [Example 84, 2-(3′,5′-Dibromo-3-methyl-biphenyl-4-ylamino)-benzoic acid], the IC50 is over 100 µM in assay [1] (setting [6]); over 100 µM in assay [2] (setting [5]); 5 µM and 21 µM in assay [3].

Consider `Cc1cc(-c2ccc3c(c2)OCO3)ccc1Nc1ccccc1C(=O)O` [Example 85, 2-(4-1,3-Benzodioxol-5-yl-2-methyl-phenylamino)-benzoic acid], for which the IC50 was 18 µM in assay [1] (setting [6]); over 100 µM in assay [2] (setting [5]); 8 µM and 77 µM and 45 µM in assay [3].

With `O=C(O)c1ccccc1Nc1ccc(-c2ccc(Cl)cc2Cl)c(Cl)c1` [Example 86, 2-(2,2′,4′-Trichloro-biphenyl-4-ylamino)-benzoic acid], the IC50 in assay [1] (setting [6]) is 18 µM; in assay [2] (setting [5]), 40 µM; in assay [3] it was > 10 µM and 89 µM and 37 µM.

On to `O=C(O)c1ccccc1Nc1ccc(-c2ccc(F)c(F)c2)c(Cl)c1` [Example 87, 2-(2-Chloro-3′,4′-difluoro-biphenyl-4-ylamino)-benzoic acid], for which the IC50 in assay [1] (setting [6]) was 50 µM; in assay [2] (setting [5]), over 100 µM; in assay [3], > 10 µM and 15 µM and 32 µM.

As to `O=C(O)c1ccccc1Nc1ccc(-c2cccc(Br)c2)c(Cl)c1` [Example 88, 2-(3′-Bromo-2-chloro-biphenyl-4-ylamino)-benzoic acid], the IC50 in assay [1] (setting [6]) was 10 µM; in assay [2] (setting [5]) it was over 100 µM; in assay [3] it was > 10 µM and 37 µM and 27 µM.

As to `O=C(O)c1ccccc1Nc1ccc(CCc2ccc(Cl)c(Cl)c2)cc1` [Example 118, 2-{4-[2-(3,4-Dichloro-phenyl)-ethyl]-phenylamino}-benzoic acid monopotassium], the values for the IC50 in assay [1] (setting [6]), in assay [2] (setting [5]) and in assay [3] were 6 µM, over 100 µM and over 60 µM, respectively.

As to `O=C(O)c1ccccc1Nc1ccc(CCc2ccc(Cl)c(Cl)c2)cc1` [Example 119, 2-{4-[2-(3,4-Dichloro-phenyl)-ethyl]-phenylamino}-benzoic acid calcium salt (1:1)], the figures for the IC50 in assay [1], in assay [2] (setting [5]) and in assay [3] were 3 µM, over 100 µM and over 60 µM, respectively.

Regarding `O=C(O)c1cc(C(F)(F)F)ccc1Nc1ccc(CCc2ccc(Cl)c(Cl)c2)cc1` [Example 143, 2-{4-[2-(3,4-Dichlorophenyl)-ethyl]-phenylamino}-5-trifuoromethyl-benzoic acid], the IC50 was over 100 µM in assay [4]; 40 µM and 30 µM in assay [1]; over 100 µM in assay [2].

For the compound `CN(c1ccc(CCc2ccc(Cl)c(Cl)c2)cc1)c1ccccc1C(=O)O` [Example 148, 2-({4-[2-(3,4-Dichloro-phenyl)-ethyl]-phenyl}-methyl-amino)-benzoic acid], the IC50 in assay [4] and in assay [2] (setting [5]) was over 100 µM in each case.

Regarding `O=C(O)c1ccccc1Nc1cccc(CCc2ccc(Cl)cc2)c1` [Example 154, 2-{3-[2-(4-Chlorophenyl)ethyl]phenylamino}-benzoic acid], the IC50 in assay [4] is 70.8 µM; in assay [2] (setting [5]), over 100 µM.

Take `O=C(O)c1ccccc1Nc1cccc(CCCc2ccc(Cl)c(Cl)c2)c1` [Example 155, 2-{3-[3-(3,4-Dichlorophenyl)propyl]phenylamino}-benzoic acid]: the IC50 was 44.6 µM in assay [4], 3 µM in assay [1] (setting [6]) and over 100 µM in assay [2] (setting [5]).

As to `CCN(CC)c1ccc(CCCc2cccc(Nc3ccccc3C(=O)O)c2)cc1` [Example 156, 2-{3-[3-(4-Diethylaminophenyl)propyl]phenylamino}-benzoic acid], half-maximal inhibition in assay [4] (IC50) was put at 27.8 µM.

For the compound `CCCN(CCC)c1ccc(CCCc2cccc(Nc3ccccc3C(=O)O)c2)cc1` [Example 157, 2-{3-[3-(4-Di-n-propylaminophenyl)propyl]phenylamino}-benzoic acid], the IC50 in assay [4] was determined as 25.9 µM.

A word on the IC50: it is the point on the concentration scale where inhibition reaches its midpoint.
